We go through eleven compounds from article PMC5516711 (Evidence-based Complementary and Alternative Medicine : eCAM, 2017).

Where two headings read alike, the source gives them in different places. Where only a bound is given, the exact number is not on record here.

The nature of data set [1]: Pharmacokinetic study in rats after oral administration of Naoxintong capsule (NXTC), plasma levels by HPLC-MS/MS. Particulars: for Detection in rat plasma after oral administration of NXTC: doses of 0.5 g kg^−1 and 1.5 g kg^−1, at the present LLOQ level; for AUC(0-inf) / AUC(0-t) / Cmax / MRT inf / MRT last / Tmax / half-life: male, Sprague-Dawley, rat, plasma, po.
Experimental: (§1) The LC-MS/MS analysis was carried out on an Agilent 1200 system (Agilent Corporation, USA) coupled with an API 3200 triple quadrupole mass spectrometer with a Turbo Ion Spray Ionization (ESI) source (Concord, Ontario, Canada). The Agilent 1200 system consisted of a vacuum degasser (G1322A), a binary pump (G1312A), and a Hip-ALS autosampler (G13678). Chromatographic separation was performed on an Eclipse plus C18 column (4.6 × 100 mm, 1.8 μm) with a security guard C18 column (2.1 mm × 12.5 mm, 5 μm) (Agilent, USA). The mobile phases consisted of acetonitrile (A) and formic acid aqueous solution (B). The linear gradient was 30% A-30% A (0–10 min); 30%–80% A (10–15 min); 80%–95% A (15–20 min); 95%-95% A (20–30 min). Reequilibration time after gradient elution was 5 min. The column temperature was maintained at 25°C and the flow rate was set at 0.300 mL min^−1. ESI-MS spectra were acquired in both negative and positive ion multiple reaction monitoring (MRM) mode. Data collection and peak calculations were performed by Analyst 1.4.2 software (AB MDS Sciex).
(§2) The ISs solution (10 μL) and formic acid (10 μL) were added to plasma samples (100 μL). Acetonitrile (370 μL) was used to precipitate protein. The mixed solution was swirled for 1 min and then centrifuged at 14000 rpm for 10 min. The supernatant fluid was collected and then evaporated to dryness with a stream of N2 gas in a 40°C water bath. The residue was reconstituted in 100 μL methanol, swirled for 1 min. The sample was centrifuged at 14000 rpm for 10 min. 10 μL of the supernatant was injected into the LC-MS/MS system for analysis.
(§3) Rats were fasted for 12 h with free access to water before the experiment. NXTC extracts were orally administrated to ten rats at single time dose (0.5 g kg^−1) and to ten rats at triple doses (1.5 g kg^−1). The blood samples were collected at 5, 10, 15, 30, 45, 60, 90, 120, 240, 480, 720, and 1440 min after oral administration. Blood samples (200 μL) were collected from the vein of the eye sockets into heparinized tubes after the rats were anesthetized with ethyl ether. The samples were immediately centrifuged at 7,000 rpm, 10°C for 10 min. Then the plasma samples obtained were stored at −20°C.
(§4) Some pharmacokinetic parameters were calculated by DAS1.0 software (Drug and Statistics 1.0, Medical College of Wannan, China). An appropriate model was employed to calculate the following parameters: area under the plasma concentration versus time curve from zero to last sampling time (AUC0→24 h) and infinity (AUC0→∞) and mean retention time from zero to last sampling time (MRT0→24 h). […] All data were shown as average value ± standard deviation.
The conditions of data set [2]: in vivo.
Experimental: as §1, §2, §3, §4
For data set [3] the following is noted: rat, in vivo, po; cited from earlier work.

By AUC(0-inf) is commonly meant the area under the concentration-time curve extrapolated to infinity. Higher therefore signals more exposure. Broadly, the AUC(0-t) is the area under the concentration-time curve up to a stated or last time point. For orientation: Cmax means the maximum level reached in the sampled fluid or tissue. For orientation: MRT inf means the average time that molecules of a dose stay in the body. Usually MRT last stands for a mean duration of stay, worked out from the concentration-time curve. The Tmax is the time from dosing to the highest level. The half-life is how long it takes for the measured level to halve. The low end stands for rapid decline, the high end for slow decline. With `Cc1coc2c1C(=O)C(=O)c1c-2ccc2c1CCCC2(C)C` [Tanshinone IIA, tanshinone IIA], in data set [1], the “Detection in rat plasma after oral administration of NXTC” value (“Detection in rat plasma” for short) was “could be detected”. Moreover, in data set [1] (0.5 g/kg), the area under the curve AUC(0-inf) came out at 27.7 ± 36.2 ng·h/mL, the AUC(0-t) was 8.15 ± 4.85 ng·h/mL, the concentration peaked (Cmax) at 1.61 ± 1.11 ng/mL and the MRT inf worked out at 26.8 ± 31.5 h. In data set [1] (0.5 g/kg), the MRT last was 5.48 ± 1.66 h, the Tmax stood at 0.54 ± 0.29 h and the half-life is 11.4 ± 15.8 h. Besides, in data set [1] (1.5 g/kg), the AUC(0-inf) was 83 ± 81 ng·h/mL, the AUC(0-t) came out at 35.4 ± 42.2 ng·h/mL, the Cmax came out at 4.18 ± 3.34 ng/mL and the MRT inf was 27.2 ± 20.6 h. For the same compound, in data set [1] (1.5 g/kg), the MRT last was 5.75 ± 3.36 h, the Tmax worked out at 3.17 ± 3.75 h and the half-life is 13.2 ± 10.4 h.
For the compound `COc1cc(/C=C/C(=O)O)ccc1O` [Ferulic acid, ferulic acid], in data set [2], the “Detection in rat plasma” value is “could be detected”. Further, in data set [2] (rat, po), the Cmax is 12.07 ± 4.61 ng/mL and the time to peak (Tmax) result is “less than 1 h”. In data set [2] (rat, po, 0.5 g/kg), the “AUC(0–24 h)” value stood at 3.20 ± 1.55 ng/mL∗h, the “AUC(0–∞)” value worked out at 4.19 ± 2.30 ng/mL∗h, the C max turned out to be 10.93 ± 4.67 ng/mL and the “MRT(0–24 h)” value stood at 0.28 ± 0.10 h. In data set [2] (rat, po, 0.5 g/kg), the “MRT(0–∞)” value was 0.48 ± 0.33 h, the “T 1/2” value is listed as 0.20 ± 0.19 h and the T max was determined as 0.17 ± 0.00 h. In data set [2] (rat, po, 1.5 g/kg), the “AUC(0–24 h)” value is given as 8.33 ± 3.87 ng/mL∗h, the “AUC(0–∞)” value stood at 14.4 ± 12.8 ng/mL∗h, the C max was 12.07 ± 4.61 ng/mL and the “MRT(0–24 h)” value was found to be 0.81 ± 0.38 h. Further, in data set [2] (rat, po, 1.5 g/kg), the “MRT(0–∞)” value was 3.80 ± 6.11 h, the “T 1/2” value worked out at 0.42 ± 0.15 h and the T max was 0.19 ± 0.04 h. In addition, the “mean Tmax” value in data set [3] was 1.8 min.
Regarding `N#C[C@H](O[C@@H]1O[C@H](CO[C@@H]2O[C@H](CO)[C@@H](O)[C@H](O)[C@H]2O)[C@@H](O)[C@H](O)[C@H]1O)c1ccccc1` [Amygdalin, amygdalin], the “Detection in rat plasma” value in data set [1] is “not detected”.
On the same count and under the same terms, the value for `OC[C@H]1O[C@@H](Oc2cc(O)cc(/C=C/c3ccc(O[C@@H]4O[C@H](CO)[C@@H](O)[C@H](O)[C@H]4O)cc3O)c2)[C@H](O)[C@@H](O)[C@@H]1O` [Mulberroside A, mulberroside A] was “not detected”.
For the compound `COc1ccc(-c2coc3cc(O)ccc3c2=O)cc1` [Formononetin, formononetin], in data set [1], the “Detection in rat plasma” value was “could be detected”, the AUC(0-t) is below 1 ng·h/mL, the Cmax is below 1 ng/mL and the Tmax was below 1 h. In data set [1] (0.5 g/kg), this compound returned an AUC(0-inf) of 0.15 ± 0.09 ng·h/mL, an AUC(0-t) of 0.08 ± 0.05 ng·h/mL, a Cmax of 0.11 ± 0.05 ng/mL and an MRT inf of 1.67 ± 1.53 h. Further, in data set [1] (0.5 g/kg), the MRT last is 0.56 ± 0.23 h, the Tmax is 0.49 ± 0.33 h and the half-life was 2.96 ± 5.61 h. In data set [1] (1.5 g/kg), this compound gave an AUC(0-inf) of 3.06 ± 3.07 ng·h/mL, an AUC(0-t) of 1.47 ± 1.82 ng·h/mL, a Cmax of 0.37 ± 0.32 ng/mL and a mean residence time MRT inf of 25.9 ± 31.8 h. In addition, in data set [1] (1.5 g/kg), the MRT last was 5.16 ± 3.68 h, the Tmax was determined as 0.38 ± 0.25 h and the half-life was 1.42 ± 0.69 h.
As for `O=C(O)/C=C/c1ccc(O)c(O)c1` [Caffeic acid, caffeic acid], the Tmax in data set [1] was below 1 h. Further, in data set [1] (0.5 g/kg), the AUC(0-inf) turned out to be 19.6 ± 21.1 ng·h/mL, the AUC(0-t) is 11.7 ± 9.6 ng·h/mL, the Cmax was determined as 9.8 ± 4.4 ng/mL and the MRT inf turned out to be 4.02 ± 4.96 h. In addition, in data set [1] (0.5 g/kg), the MRT last came out at 1.33 ± 1.19 h, the time of peak concentration (Tmax) was found to be 0.18 ± 0.03 h and the half-life is 0.83 ± 0.33 h. In data set [1] (1.5 g/kg), this compound yielded an AUC(0-inf) of 28.5 ± 20 ng·h/mL, an AUC(0-t) of 26 ± 18.6 ng·h/mL, a Cmax of 15.2 ± 3.08 ng/mL and a mean residence time MRT inf of 2.72 ± 1.82 h. In data set [1] (1.5 g/kg), the mean residence time MRT last was 2.03 ± 1.43 h, the Tmax was 0.2 ± 0.04 h and the half-life is 0.7 ± 0.35 h.
On to `CC(C)(O)CC[C@@H](O)[C@](C)(O)[C@H]1CC[C@@]2(O)C3=CC(=O)[C@@H]4C[C@@H](O)[C@@H](O)C[C@]4(C)[C@H]3CC[C@]12C` [Ecdysterone, ecdysterone], for which the “Detection in rat plasma” value in data set [1] is “not detected”.
The same measure, in the same setting: next, salvianolic acid B: “not detected”.
`C[C@H]1COC2=C1C(=O)C(=O)c1c2ccc2c1CCCC2(C)C` [Cryptotanshinone, cryptotanshinone]: the “Detection in rat plasma” value in data set [1] was “could be detected”. In data set [1] (0.5 g/kg), this compound came in with an AUC(0-inf) of 4.72 ± 5.99 ng·h/mL, an AUC(0-t) of 1.49 ± 0.76 ng·h/mL, a Cmax of 0.61 ± 0.23 ng/mL and an MRT inf of 20.7 ± 27.7 h. In addition, in data set [1] (0.5 g/kg), the MRT last is 3.06 ± 1.47 h, the Tmax stood at 0.51 ± 0.4 h and the half-life was 2.93 ± 3.89 h. In addition, in data set [1] (1.5 g kg^−1), the half-life is 17.8 ± 17.1 h. Also, in data set [1] (1.5 g/kg), the AUC(0-inf) came to 55.2 ± 59.8 ng·h/mL, the AUC(0-t) amounted to 24.8 ± 27.9 ng·h/mL, the maximum concentration (Cmax) worked out at 2.78 ± 2.52 ng/mL and the MRT inf came to 19 ± 17.5 h. Further, in data set [1] (1.5 g/kg), the MRT last was found to be 7.37 ± 3.95 h, the Tmax stood at 0.6 ± 0.2 h and the half-life is 17.8 ± 17.1 h.
As to `CC(C)(O)[C@@H]1CC[C@](C)([C@H]2[C@@H](O)C[C@@]3(C)[C@@H]4C[C@H](O[C@@H]5O[C@H](CO)[C@@H](O)[C@H](O)[C@H]5O)[C@H]5C(C)(C)[C@@H](O[C@@H]6OC[C@@H](O)[C@H](O)[C@H]6O)CC[C@@]56C[C@@]46CC[C@]23C)O1` [Astragaloside IV, astragaloside IV], the “Detection in rat plasma” value in data set [1] is reported as “not detected”.
With `C[C@@]12C[C@@]3(O)O[C@@H](O1)[C@]1(COC(=O)c4ccccc4)[C@H]3C[C@@]12O[C@@H]1O[C@H](CO)[C@@H](O)[C@H](O)[C@H]1O` [Paeoniflorin, paeoniflorin], the “Detection in rat plasma” value in data set [1] is “not detected”.
